Results on two compounds are retold here after EP1223171A1, “Antimicrobial 5-substituted-3-isothiazolone compounds and methods of use” (Rohm and Haas, priority 2001, dated 2002).

Converted amounts (≈) assume the structure as drawn.

Holding throughout (experiment): high resolution minimum inhibitory concentration (HRMIC) test
Assay type in all cases: cell-based

The test system of experiment [1] is Staphylococcus aureus 6538. On the procedure:
(§1) Biological Activity: certain compounds of the present invention were tested for activity against three microorganisms, Escherichia coli 8739 (Gram-negative bacterium) and Staphylococcus aureus 6538 (Gram-positive bacterium) and Aspergillus niger 16404.
(§2) The lowest concentration of test compound required to inhibit Staphylococcus aureus 6538, Escherichia coli 8739 and Aspergillus niger 16404 was determined by a high resolution minimum inhibitory concentration (HRMIC) test. Varying amounts of the test compounds were added to minimal salts glucose medium (see T. Maniatis, E.F. Fritsch and J. Sambrook, Molecular Cloning, p 68 (1982)) supplemented with 0.1% yeast extract (M9GY) in a 96-well microtiter plate. Ten-fold serial dilutions were performed on a Biomek™ 2000 Workstation to obtain a range of closely spaced concentrations of test compound as shown in Table 1 (based on dilutions of a 10,000 ppm active ingredient stock solution of the test compound). The plates were inoculated with cell suspension of inoculum and adjusted to provide about 10^6 CFU (colony forming units)/ml in each well. The microtiter plates were incubated at 30°C for 24 hours and then checked (optical density at 650 nm using a microplate reader) for the presence or absence of microbial growth in each well. […] Data reported (ppm active ingredient) are the average of multiple determinations (see Table 2).

The next experiment has as its system Aspergillus niger 16404. To be noted: ppm active ingredient, M9GY medium, about 10^6 CFU/ml, 30°C for 24 hours, average of multiple determinations. On the procedure:
as §1, §2

The next experiment deals with Escherichia coli 8739. To be noted: for better control versus Gram-negative (E. coli) bacteria than compound 6: ratio of MIC relative to compound 6 (MIC >1000 ppm). Here is the method: as §1, §2

With `Cn1sc(Sc2cccc[n+]2[O-])cc1=O` [Compound 3, [2-methyl-3-isothiazolon-5-yl]-(1-oxypyridin-2-yl)sulfide], the MIC in experiment [1] (Staphylococcus aureus, 6538, ppm active ingredient, M9GY medium, about 10^6 CFU/ml, 30°C for 24 hours, average of multiple determinations, read-out: MIC (ppm) S. aur) came to 1 µg/mL (≈ 4.16 µM); with Aspergillus niger 16404, 60 µg/mL (≈ 250 µM); in the experiment with Escherichia coli 8739 (Escherichia coli, 8739, ppm active ingredient, M9GY medium, about 10^6 CFU/ml, 30°C for 24 hours, average of multiple determinations, read-out: MIC (ppm) E. coli), 6 µg/mL (≈ 25 µM). Further, the “better control versus Gram-positive (S. aur) bacteria than compound 6” value in experiment [1] (ratio of MIC relative to compound 6) is given as 5 fold. Further, in the experiment with Escherichia coli 8739, the “better control versus Gram-negative (E. coli) bacteria than compound 6” value is recorded as ≥ 160 fold.

In the case of `CCCCCCCCn1sc(Sc2cccc[n+]2[O-])c(Cl)c1=O` [Compound 5, [4-chloro-2-n-octyl-3-isothiazolon-5-yl]-(1-oxypyridin-2-yl)sulfide], the “better control versus Gram-negative (E. coli) bacteria than compound 6” value in the experiment with Escherichia coli 8739 is “at least 30 fold”.

One may read the MIC as the least concentration at which growth counts as inhibited.
